Test results: US8748624B2, “Picolinamido-propanoic acid derivatives useful as glucagon receptor antagonists” (Janssen Pharmaceutica NV, priority 2011, dated 2014)

Assays:
[1] = target: human glucagon receptor (GCGR) (Homo sapiens (Human), UniProt P47871); assay: Inhibition of 125I-glucagon binding to membranes from HEK293 cells expressing the human glucagon receptor; details: membranes of hGluc-1 HEK cells, 125I-glucagon 0.3 nM, 2 hours room temperature; IC50 converted to Ki; average if tested more than once
In short: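 Filtration binding assay on membranes from HEK293 cells stably expressing full-length human GCGR, 6 μg protein/well, with 0.3 nM ¹²⁵I-glucagon plus compound, 2 h at room temperature. Buffer: 50 mM HEPES pH 7.4, 5 mM MgCl2, 1 mM CaCl2, 0.2% BSA. IC50 by non-linear regression, converted to Ki.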

[2] = target: human GCGR (Homo sapiens (Human), UniProt P47871); assay: Cellular functional assay, cAMP readout (glucagon-stimulated cAMP in HEK293 cells expressing human GCGR); assay type: cell-based; details: hGluc-1 HEK cells, LANCE TR-FRET, IC50 converted to Ki, average if tested more than once
In short: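 HEK293 cells stably transfected with full-length human GCGR were exposed to compound for 30 min before a 5-min challenge with […] (final) glucagon. Readout was TR-FRET (LANCE) cAMP versus standard curve; IC50s fitted by non-linear regression and converted to Ki values.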

Chain of human glucagon receptor (GCGR) (P47871 26-477): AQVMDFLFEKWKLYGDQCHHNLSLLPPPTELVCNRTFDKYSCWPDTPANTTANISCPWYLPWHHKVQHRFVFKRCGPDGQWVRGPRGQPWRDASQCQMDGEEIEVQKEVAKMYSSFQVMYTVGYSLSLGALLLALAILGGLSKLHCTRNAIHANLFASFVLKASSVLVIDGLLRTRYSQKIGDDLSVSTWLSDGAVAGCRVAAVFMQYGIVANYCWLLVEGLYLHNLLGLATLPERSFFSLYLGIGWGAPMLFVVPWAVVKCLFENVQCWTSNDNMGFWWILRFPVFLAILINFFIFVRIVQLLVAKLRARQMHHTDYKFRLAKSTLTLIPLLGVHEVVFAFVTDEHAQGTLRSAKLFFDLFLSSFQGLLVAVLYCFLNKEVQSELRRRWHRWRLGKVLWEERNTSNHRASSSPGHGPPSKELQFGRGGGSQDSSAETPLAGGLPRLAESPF
Chain of human GCGR (P47871 26-477): as above

Row | Ki [1] | Ki [2] | SMILES
1 | 26.1 nM | 320 nM | O=C(O)CCNC(=O)c1ccc(-c2cc(F)c(F)cc2CNc2ccc(-c3ccc(Cl)c(C(F)(F)F)c3)c(Cl)c2)cn1 [Compound 106, 3-(5-(2-(((2,4′-dichloro-3′-(trifluoromethyl)-[1,1′-biphenyl]-4-yl)amino)methyl)-4,5-difluorophenyl)picolinamido)propanoic acid]
2 | 23.7 nM | 54.8 nM | O=C(O)CCNC(=O)c1ccc(-c2cc(F)c(F)cc2CNc2ccc(-c3cccc(C(F)(F)F)c3Cl)c(Cl)c2)cn1 [Compound 107, 3-(5-(2-(((2,2′-dichloro-3′-(trifluoromethyl)-[1,1′-biphenyl]-4-yl)amino)methyl)-4,5-difluorophenyl)picolinamido)propanoic acid]
3 | 23.9 nM | 84.9 nM | O=C(O)CCNC(=O)c1ccc(-c2cc(F)c(F)cc2CNc2ccc(-c3ccc(Cl)cc3Cl)c(Cl)c2)cn1 [Compound 108, 3-(5-(4,5-difluoro-2-(((2,2′,4′-trichloro-[1,1′-biphenyl]-4-yl)amino)methyl)phenyl)picolinamido)propanoic acid]
4 | 30.4 nM | 115 nM | N#Cc1cc(NCc2cc(F)c(F)cc2-c2ccc(C(=O)NCCC(=O)O)nc2)ccc1-c1ccc(F)c(C(F)(F)F)c1 [Compound 109, 3-(5-(2-(((2-cyano-4′-fluoro-3′-(trifluoromethyl)-[1,1′-biphenyl]-4-yl)amino)methyl)-4,5-difluorophenyl)picolinamido)propanoic acid]
5 | 43.5 nM | 170 nM | N#Cc1cc(NCc2cc(F)c(F)cc2-c2ccc(C(=O)NCCC(=O)O)nc2)ccc1-c1ccc(Cl)cc1 [Compound 110, 3-(5-(2-(((4′-chloro-2-cyano-[1,1′-biphenyl]-4-yl)amino)methyl)-4,5-difluorophenyl)picolinamido)propanoic acid]
6 | 69.6 nM | 180 nM | N#Cc1cc(NCc2cc(F)c(F)cc2-c2ccc(C(=O)NCCC(=O)O)nc2)ccc1-c1ccc(Cl)cc1F [Compound 111, 3-(5-(2-(((4′-chloro-2-cyano-2′-fluoro-[1,1′-biphenyl]-4-yl)amino)methyl)-4,5-difluorophenyl)picolinamido)propanoic acid]
7 | 76.5 nM | 280 nM | Cc1ccc(-c2ccc(NCc3cc(F)c(F)cc3-c3ccc(C(=O)NCCC(=O)O)nc3)cc2C#N)c(F)c1 [Compound 112, 3-(5-(2-(((2-cyano-2′-fluoro-4′-methyl-[1,1′-biphenyl]-4-yl)amino)methyl)-4,5-difluorophenyl)picolinamido)propanoic acid]
8 | 58.3 nM | 650 nM | N#Cc1cc(NCc2cc(F)c(F)cc2-c2ccc(C(=O)NCCC(=O)O)nc2)ccc1-c1ccc(Cl)c(C(F)(F)F)c1 [Compound 113, 3-(5-(2-(((4′-chloro-2-cyano-3′-(trifluoromethyl)-[1,1′-biphenyl]-4-yl)amino)methyl)-4,5-difluorophenyl)picolinamido)propanoic acid]
9 | 40.4 nM | 73.5 nM | N#Cc1cc(NCc2cc(F)c(F)cc2-c2ccc(C(=O)NCCC(=O)O)nc2)ccc1-c1ccc(Cl)cc1Cl [Compound 114, 3-(5-(2-(((2′,4′-dichloro-2-cyano-[1,1′-biphenyl]-4-yl)amino)methyl)-4,5-difluorophenyl)picolinamido)propanoic acid]
10 | 95.7 nM | 500 nM | Cc1cc(-c2ccc(NCc3cc(F)c(F)cc3-c3ccc(C(=O)NCCC(=O)O)nc3)cc2C#N)ccc1F [Compound 115, 3-(5-(2-(((2-cyano-4′-fluoro-3′-methyl-[1,1′-biphenyl]-4-yl)amino)methyl)-4,5-difluorophenyl)picolinamido)propanoic acid]
11 | 43.5 nM | 160 nM | O=C(O)CCNC(=O)c1ccc(-c2cc(F)c(F)cc2CNc2ccc(-c3ccc(Cl)cc3)cc2)cn1 [Compound 117, 3-(5-(2-(((4′-chloro-[1,1′-biphenyl]-4-yl)amino)methyl)-4,5-difluorophenyl)picolinamido)propanoic acid]
